Results published in patent US6020336A, “Indole and indazole compounds” (priority 1997, dated 2000).
Where a name gives a salt, the structure may show the parent alone.

Key:
[1] = test system: saphenous vein of rabbits; assay: Contraction of the saphenous vein isolated from rabbit; details: Oryctolagus cuniculus, rabbit saphenous vein rings; for Emax: % relative to the maximum effect induced by KCl (100 mM), read-out: maximum response (contraction of the saphenous vein); for EC50: cumulative doses 10^-9 to 10^-4 M, 37° C., tension as % of KCl maximum
Method: (§1) The activity of the compounds of the invention has been evaluated in a pharmacological test that measures their potential for contracting the saphenous vein isolated from a dog or rabbit, as described by Humphrey et al. (Br. J. Pharmacol., 94, 1123, 1988).
(§2) The test are carried out on saphenous veins of dogs (10-25 kg) or of rabbits (2-3 kg) which have ben anaesthetised with pentobarbital (30 mg/kg i.v.). The saphenous veins are removed quickly and cut into rings. The rings are mounted between two hooks in vessels maintained at 37° C. containing physiological saline (composition in mM:NaCl 118.3; KCl 4.7; CaCl2 2.5; MgSO4 1.2; KH2 PO4 1.2; NaHCO3 25.0; Ca-EDTA 0.026 and glucose 11.1).
(§3) A mixture of 95% O2 --5% CO2 is bubbled through the physiological saline solution. The lower hook consists of the fixed point whilst the upper hook is connected to an isometric force sensor. The tissues are subjected to a base tension of 1.5 grammes (dog) and of 1 gramme (rabbit). The test pharmacological substances are prepared immediately prior to use; they are solubilised in water or in dimethyl sulphoxide.
(§4) After being mount, the preparations are left to rest for 60 minutes, rinsing operations being carried out every 30 minutes. The organ is then placed in the presence of phenoxybenzamine (5×10^-8 M) for 20 minutes. That agent is eliminated by a number of successive washing operations over the course of 45 minutes. After readjustment of the base tension, contraction is brought about by KCl (100 mM). After washing and return to the base line, contraction is induced by 5-hydroxytryptamine (10^-5 M).
(§5) After washing and return to the base line, a dose/response curve for the pharmacological substances is produced by the addition of cumulative doses (10^-9 to 10^-4 M).
(§6) The test enables the 50% effective concentration (EC50) of the compounds of the invention to be determined.
The EC50 is calculated in the following manner: the tension values are first converted into percentages relative to the maximum effect induced by KCl. The effective concentration 50% (ED50) is determined by non-linear regression according to the model of the law of mass action of Michaelis-Menten.

saphenous vein of dogs = assay: Contraction of the saphenous vein isolated from dog; details: Canis lupus familiaris, dog saphenous vein rings
Method: as §1, §2, §3, §4, §5, §6
The EC50 is calculated in the following manner: the tension values are first converted into percentages relative to the maximum effect induced by KCl. […]

EC50 [1] | EC50 (saphenous vein of dogs; cumulative doses 10^-9 to 10^-4 M, 37° C., tension as % of KCl maximum) | SMILES | Emax [1] | Emax (saphenous vein of dogs; % relative to the maximum effect induced by KCl (100 mM), read-out: maximum response (contraction of the saphenous vein)) | Emax at 100 µM (saphenous vein of dogs; 100 μM, % relative to the maximum effect induced by KCl (100 mM), read-out: maximum contraction at a concentration of 100 μM)
120 nM | 170 nM | CN(C)CCn1ncc2ccc(-n3cnnc3)cc21 [Example 6, 1-(Dimethylaminoethyl)-6-([1,2,4]triazol-4-yl)indazole dihydrochloride] | 87% | 47% | 
300 nM |  | COc1cncnc1N1CCN(CCCn2ccc3ccc(-n4cnnc4)cc32)CC1 [Example 5, 1-{3-[4-(5-Methoxypyrimidin-4-yl)piperazin-1-yl]propyl}-6-([1,2,4]-triazol-4-yl)indole dihydrochloride] | 75% |  | 6%
